Experimental data as given in US6599713B1, “Method for quantitating leukocyte count in whole blood sample” (priority 1999, dated 2003).

What was measured:
[1] = system: white blood cells contained in the whole blood; assay: Time required for lyzing white blood cells: MPO released from whole blood by surfactant, MPO enzyme immunoassay kit (Example 1); type: cell-based, human; details: room temperature; for MPO concentration of whole blood: 100 μl of 11% solution per 1 ml healthy human whole blood, mean ± SD of 3
Procedure: 10 ml of healthy human whole blood was collected in a test tube containing 10 mg of EDTA-2K (manufactured and sold by Dojin Laboratories, Japan) and the resultant EDTA-containing whole blood sample was stirred well, and then 1 ml of the whole blood sample was taken out from the test tube. To the 1 ml whole blood sample taken out from the test tube was added 100 μl of an aqueous 11% solution of Triton™ X-100 (manufactured and sold under the brand of SIGMA™, U.S.A.), and the resultant mixture was stirred well and then allowed to stand at room temperature for 1 minute to obtain a (whole blood sample/surfactant) mixture containing the lyzed white blood cells. Substantially the same operation as mentioned above was repeated except that the standing time at room temperature was changed to 5 minutes, 30 minutes and 60 minutes to thereby lyze the white blood cells contained in the whole blood.
After the above-mentioned period of time, each of the obtained (whole blood sample/surfactant) mixtures containing the lyzed white blood cells was individually diluted 2,000-fold with a sample diluting buffer (20 mM phosphate buffer (pH 7.4) containing 0.1% bovine serum albumin and 0.2% sodium azide), which buffer is attached to BIOXYTEC™ MPO Enzyme Immunoassay kit (manufactured and sold by OXIS International, Inc., U.S.A.), and the resultant diluted mixture was taken as a sample for the measurement of myeloperoxidase (MPO).
With respect to the above-mentioned sample for the measurement of MPO and a standard MPO solution (which is obtained by dissolving commercially available MPO in the above mentioned buffer), the measurement of the MPO concentration was performed using BIOXYTEC™ MPO Enzyme Immunoassay kit (manufactured and sold by OXIS International, Inc., U.S.A.) in accordance with the instruction manual attached thereto.
Specifically, with respect to the measurement of the MPO concentration of the above-mentioned sample, MPO (manufactured and sold by Elastin Products Co., INC., U.S.A.) was added to the sample so that the final concentration of the added MPO became 5 ng/ml or 10 ng/ml, and the resultant mixture was measured with respect to the MPO concentration. From the obtained value of MPO concentration, a calibration curve for each sample was obtained. The obtained calibration curve was corrected, based on its relationship with a calibration curve obtained with respect to the standard MPO solution, and the corrected calibration curve of each sample was used to determine the MPO concentration of the whole blood. The measurement was conducted 3 times, and a mean value±standard deviation was obtained.

[2] = system: white blood cells contained in the whole blood; assay: Concentration of surfactant and release amount of MPO in whole blood, ELISA (Example 2); type: cell-based, human; details: 60 minutes on ice, mean ± SD of 3
Procedure: 10 ml of healthy human whole blood was collected and immediately mixed with 10 mg of EDTA-2K (manufactured and sold by Dojin Laboratories, Japan), and the resultant EDTA-containing whole blood sample was subjected to the below-described various measurements within 1 hour from the blood collection.
500 μl of the blood was put in a 2-ml Eppendorf tube, and 500 μl of an aqueous surfactant solution having a surfactant concentration of 0.1, 0.2, 0.4, 0.6, 1, 2, 4, 10 or 20% (w/v) was added to the tube, and the resultant mixture was stirred for 2 seconds by a Vortex mixer. Subsequently, the mixture was allowed to stand for 60 minutes on ice to thereby lyze the white blood cells. […] After the lysis of the white blood cells, 100 μl of the mixture was taken out and added to 900 μl of a PBS solution containing dissolved therein 1% BSA (trade name: “Sigma fraction V”, manufactured and sold under the brand of SIGMA™, U.S.A.). The resultant mixture was stirred by a Vortex mixer, and then 10 μl of the mixture was taken out and diluted 2,000-fold with 1% BSA/PBS solution. The resultant diluted mixture was subjected to a measurement by ELISA.
The outline of the ELISA is as follows. A 5 μg/ml PBS solution of a rabbit anti-human myeloperoxidase antibody (manufactured and sold by Calbiochem-Novabiochem Corporation, U.S.A.)(hereinafter, frequently referred to as “anti-MPO antibody”) was put into the wells of a Nunc Immuno Plate (manufactured and sold by Nalge Nunc International, Denmark) in an amount of 100 μl per well. The solution in each well was sealed and subjected to a reaction for 18 hours at 4° C. thereby immobilizing the primary antibody. The wells were washed with a washing solution (0.05% Tween™ 20/PBS) and then subjected to blocking for 1 hour at room temperature by using 200 μl of a blocking solution (1% BSA/PBS), and then washed twice with the washing solution. Then, the above-obtained diluted mixture (blood sample which had been treated with a surfactant and then diluted) was put in the wells in an amount of 100 μl per well, and subjected to a reaction for 2 hours at room temperature. Then, the wells were washed 3 times with the washing solution, and a 5 μg/ml solution of an anti-MPO antibody labeled with horseradish peroxidase (hereinafter referred to as “HRP”) was put in the wells in an amount of 100 μl per well, and subjected to a reaction for 1 hour at room temperature. As the above-mentioned HRP-labeled anti-MPO antibody, an anti-human MPO antibody (manufactured and sold by Calbiochem-Novabiochem Corporation, U.S.A.) which had been labeled with HRP Grade IV (manufactured and sold under the brand of SIGMA™, U.S.A.) was employed. The labeling was performed by the method described in Analytical Biochemistry, 132, 68-73 (1983). The wells were washed 5 times with the washing solution, and 100 1 μl of a just-prepared TMB solution (manufactured and sold by Kirkegaad & Perry Laboratories, U.S.A.) was added thereto to effect a color reaction. 2 Minutes after the start of the color reaction, 100 μl of a 1 N sulfuric acid solution (manufactured and sold by Nacalai Tesque, Inc., Japan) was added to the wells to thereby terminate the reaction. Then, the absorbance at 450 nm was measured by means of a plate reader (manufactured and sold by Bio-Rad Laboratories, U.S.A.). The measurement was conducted 3 times, and a mean value±standard deviation was obtained.

## α-[4-(1,1,3,3,-Tetramethylbutyl)phenyl]-ω-hydroxypoly(oxy-1,2-ethanediyl) [Triton ™ X-100]
[1]; healthy human whole blood
  Time from start of treatment within which MPO is released from the white blood cells to a satisfactory extent: ≤ 60 min
[1]; treatment time 1 minute
  MPO concentration of whole blood: 9.88 ± 0.50 µg/mL
[1]; treatment time 5 minutes
  MPO concentration of whole blood: 10.17 ± 0.63 µg/mL
[1]; treatment time 30 minutes
  MPO concentration of whole blood: 9.94 ± 0.72 µg/mL
[1]; treatment time 60 minutes
  MPO concentration of whole blood: 10.01 ± 0.22 µg/mL
[2]; concentration of surfactant 0.05 % (w/v)
  Release amount of MPO in whole blood: 0.104 ± 0.005 Abs. 450 nm
[2]; concentration of surfactant 0.10 % (w/v)
  Release amount of MPO in whole blood: 0.161 ± 0.009 Abs. 450 nm
[2]; concentration of surfactant 0.20 % (w/v)
  Release amount of MPO in whole blood: 0.202 ± 0.006 Abs. 450 nm
[2]; concentration of surfactant 0.30 % (w/v)
  Release amount of MPO in whole blood: 0.228 ± 0.009 Abs. 450 nm
[2]; concentration of surfactant 0.50 % (w/v)
  Release amount of MPO in whole blood: 0.262 ± 0.005 Abs. 450 nm
[2]; concentration of surfactant 1.00 % (w/v)
  Release amount of MPO in whole blood: 0.245 ± 0.011 Abs. 450 nm
[2]; concentration of surfactant 2.00 % (w/v)
  Release amount of MPO in whole blood: 0.216 ± 0.004 Abs. 450 nm
[2]; concentration of surfactant 5.00 % (w/v)
  Release amount of MPO in whole blood: 0.228 ± 0.007 Abs. 450 nm
[2]; concentration of surfactant 10.00 % (w/v)
  Release amount of MPO in whole blood: 0.227 ± 0.007 Abs. 450 nm
